Experimental data: PMC5843908, “Detection of PRMT1 inhibitors with stopped flow fluorescence” (Signal Transduction and Targeted Therapy, 2018)
Blank lines part the entries; values can stand above or below the substance they belong to.

How the values were obtained:
PRMT1 [1] = tested on: PRMT1; set-up: method as in earlier work; conditions: binary binding to PRMT1; ref 2 (supplement; Feng et al. 2011); cited from earlier work
PRMT1 [2] = conditions: PRMT1 catalysis, cited from earlier work
PRMT1 [3] = target: PRMT1 (Homo sapiens, UniProt Q99873); test: Stopped flow fluorescence assay of PRMT1 inhibition ([PRMT1] 0.2 µM, [SAM] 3.5 µM, [H4FL] 0.4 µM); type: biochemical;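 note: Stopped-flow traces of fluorescent H4FL peptide quenched on binding PRMT1 and restored on release, recorded 900 s, averaged over repeated drives and fit to a double-exponential model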
PRMT1 (Homo sapiens, UniProt Q99873), sequence (Q99873 29-371): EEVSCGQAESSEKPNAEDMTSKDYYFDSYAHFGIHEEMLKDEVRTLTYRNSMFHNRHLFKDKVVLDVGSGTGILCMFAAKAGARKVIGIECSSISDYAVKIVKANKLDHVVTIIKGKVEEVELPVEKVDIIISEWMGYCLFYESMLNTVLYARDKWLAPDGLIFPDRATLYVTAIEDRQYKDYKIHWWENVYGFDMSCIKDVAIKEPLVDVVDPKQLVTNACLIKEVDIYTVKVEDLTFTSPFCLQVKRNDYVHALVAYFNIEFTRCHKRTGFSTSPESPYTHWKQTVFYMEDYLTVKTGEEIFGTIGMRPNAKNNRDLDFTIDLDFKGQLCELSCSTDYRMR
From the text: To obtain the IC50 of a specific inhibitor, the relative activities of the enzyme in presence of different concentrations of the inhibitor are required (equation 1).[37] […] By adding different concentrations of the inhibitor to the reaction mixture, the relative activity of the enzyme can be obtained by normalizing K to the reaction rate without the inhibitor, and then calculate the IC50 value using equation 1. In our stopped flow fluorescence assay, the reaction rate of Phase I and Phase II can be obtained by approximating and deriving the double-exponential equation (equation 2). In Phase I, during a very short period of time (where t is small), the curve is nearly linear, and the exponential equation can be approximately described as F1 = a · (−k1) · t. Therefore, the derivation of F1 equals –k1∙a, which is the slope of Phase I. Similarly, the curve of Phase II at early stage can be approximately described as F2 = b · (−k2) · t. This derivation of F2 equals –k2∙b, which is the slope of Phase II. The slopes at various inhibitor concentrations, normalized to the slope in the absence of inhibitor, can be used to obtain the corresponding relative enzyme activity from which the potency value (IC50) of the inhibitor can be calculated with equation 1.
In a stopped flow fluorescence assay, the binding of H4FL to PRMT1 (or the PRMT1—cofactor complex) quenches the peptide fluorescence, while release of the peptide restores the fluorescence. […] The widths of the entrance and exit slits of the monochromator were set to 0.5 mm. An equal volume of samples from two syringes was driven into the observation cell for mixing measurements. The H4FL concentration in all experiments was 0.4 μM. […] The fluorescent signal was recorded for 900 seconds, with 10,000 data points in total. Data from four to six drives were collected and averaged for each curve.
After averaging the shot data, the association time courses were fitted to a double-exponential function (equation 2) using GraphPad Prism (CA, USA). […] F is the fluorescence intensity at time t, k1, and k2 are the rate constants for Phase I and Phase II, a is the amplitude of the fluorescence change for k1, and b is the amplitude of the fluorescence change for k2. Simulation curves based on the values of a, b, k1, and k2 at fixed c = 1 were produced using Matlab. The IC50 value of inhibitors is determined by equation 1 using GraphPad Prism (CA, USA).

Substance: acetyl -SGRme2aGKGGKGK(FL)GKGGAKRHRK [H4FLme2]
koff (PRMT1 [1]): 319 s⁻¹
kon (PRMT1 [1]): 2.6e+07 M⁻¹ s⁻¹

Substance: acetyl-SGRGKGGKGK(FL)GKGGAKRHRK [H4FL]
koff (PRMT1 [1]): 333 s⁻¹
kon (PRMT1 [1]): 4e+07 M⁻¹ s⁻¹
kcat (PRMT1 [2]): 0.00717 ± 0.00017 s⁻¹
Km (PRMT1 [2]; read-out: Km of peptide substrate): 0.5 ± 0.05 µM

-b·k2 (slope of Phase II) (PRMT1 [3]; [H4R3Me2a] 0.025 µM): 0.000708 ± 1.5e-06 s⁻¹
a (amplitude, Phase I) (PRMT1 [3]; [H4R3Me2a] 0.025 µM): 0.1544 ± 3.91E-04
a·k1 (slope of Phase I) (PRMT1 [3]; [H4R3Me2a] 0.025 µM): 0.0108 ± 5.74e-05 s⁻¹
b (amplitude, Phase II) (PRMT1 [3]; [H4R3Me2a] 0.025 µM): -0.1795 ± 1.47E-04
k1 (rate constant, Phase I) (PRMT1 [3]; [H4R3Me2a] 0.025 µM): 0.06982 ± 3.27E-04 s^-1
k2 (rate constant, Phase II) (PRMT1 [3]; [H4R3Me2a] 0.025 µM): 0.003946 ± 7.72E-06 s^-1
-b·k2 (slope of Phase II) (PRMT1 [3]; [H4R3Me2a] 0.05 µM): 0.00064 ± 1.51e-06 s⁻¹
a (amplitude, Phase I) (PRMT1 [3]; [H4R3Me2a] 0.05 µM): 0.1589 ± 4.16E-04
a·k1 (slope of Phase I) (PRMT1 [3]; [H4R3Me2a] 0.05 µM): 0.0106 ± 5.8e-05 s⁻¹
b (amplitude, Phase II) (PRMT1 [3]; [H4R3Me2a] 0.05 µM): -0.1863 ± 1.43E-04
k1 (rate constant, Phase I) (PRMT1 [3]; [H4R3Me2a] 0.05 µM): 0.06665 ± 3.21E-04 s^-1
k2 (rate constant, Phase II) (PRMT1 [3]; [H4R3Me2a] 0.05 µM): 0.003437 ± 7.65E-06 s^-1
-b·k2 (slope of Phase II) (PRMT1 [3]; [H4R3Me2a] 0.1 µM): 0.000608 ± 1.59e-06 s⁻¹
a (amplitude, Phase I) (PRMT1 [3]; [H4R3Me2a] 0.1 µM): 0.1731 ± 3.91E-04
a·k1 (slope of Phase I) (PRMT1 [3]; [H4R3Me2a] 0.1 µM): 0.00927 ± 4.52e-05 s⁻¹
b (amplitude, Phase II) (PRMT1 [3]; [H4R3Me2a] 0.1 µM): -0.1960 ± 1.50E-04
k1 (rate constant, Phase I) (PRMT1 [3]; [H4R3Me2a] 0.1 µM): 0.05356 ± 2.31E-04 s^-1
k2 (rate constant, Phase II) (PRMT1 [3]; [H4R3Me2a] 0.1 µM): 0.003104 ± 7.73E-06 s^-1
-b·k2 (slope of Phase II) (PRMT1 [3]; [H4R3Me2a] 0.25 µM): 0.000613 ± 1.75e-06 s⁻¹
a (amplitude, Phase I) (PRMT1 [3]; [H4R3Me2a] 0.25 µM): 0.1692 ± 4.25E-04
a·k1 (slope of Phase I) (PRMT1 [3]; [H4R3Me2a] 0.25 µM): 0.00914 ± 4.96e-05 s⁻¹
b (amplitude, Phase II) (PRMT1 [3]; [H4R3Me2a] 0.25 µM): -0.1883 ± 1.69E-04
k1 (rate constant, Phase I) (PRMT1 [3]; [H4R3Me2a] 0.25 µM): 0.054 ± 2.60E-04 s^-1
k2 (rate constant, Phase II) (PRMT1 [3]; [H4R3Me2a] 0.25 µM): 0.003253 ± 8.83E-06 s^-1
-b·k2 (slope of Phase II) (PRMT1 [3]; [H4R3Me2a] 0.5 µM): 0.000482 ± 2.06e-06 s⁻¹
a (amplitude, Phase I) (PRMT1 [3]; [H4R3Me2a] 0.5 µM): 0.1282 ± 4.32E-04
a·k1 (slope of Phase I) (PRMT1 [3]; [H4R3Me2a] 0.5 µM): 0.00584 ± 4.38e-05 s⁻¹
b (amplitude, Phase II) (PRMT1 [3]; [H4R3Me2a] 0.5 µM): -0.1431 ± 2.10E-04
k1 (rate constant, Phase I) (PRMT1 [3]; [H4R3Me2a] 0.5 µM): 0.04557 ± 3.06E-04 s^-1
k2 (rate constant, Phase II) (PRMT1 [3]; [H4R3Me2a] 0.5 µM): 0.00337 ± 1.35E-05 s^-1
-b·k2 (slope of Phase II) (PRMT1 [3]; [H4R3Me2a] 1 µM): 0.000195 ± 1.96e-06 s⁻¹
a (amplitude, Phase I) (PRMT1 [3]; [H4R3Me2a] 1 µM): 0.1156 ± 3.30E-04
a·k1 (slope of Phase I) (PRMT1 [3]; [H4R3Me2a] 1 µM): 0.0041 ± 2.6e-05 s⁻¹
b (amplitude, Phase II) (PRMT1 [3]; [H4R3Me2a] 1 µM): -0.1396 ± 5.20E-04
k1 (rate constant, Phase I) (PRMT1 [3]; [H4R3Me2a] 1 µM): 0.0355 ± 2.01E-04 s^-1
k2 (rate constant, Phase II) (PRMT1 [3]; [H4R3Me2a] 1 µM): 0.001394 ± 1.31E-05 s^-1
-b·k2 (slope of Phase II) (PRMT1 [3]; [H4R3Me2a] 2 µM): 0.000103 ± 2.25e-06 s⁻¹
a (amplitude, Phase I) (PRMT1 [3]; [H4R3Me2a] 2 µM): 0.0723 ± 3.03E-04
a·k1 (slope of Phase I) (PRMT1 [3]; [H4R3Me2a] 2 µM): 0.00179 ± 1.72e-05 s⁻¹
b (amplitude, Phase II) (PRMT1 [3]; [H4R3Me2a] 2 µM): -0.07524 ± 5.65E-04
k1 (rate constant, Phase I) (PRMT1 [3]; [H4R3Me2a] 2 µM): 0.02475 ± 2.15E-04 s^-1
k2 (rate constant, Phase II) (PRMT1 [3]; [H4R3Me2a] 2 µM): 0.001365 ± 2.82E-05 s^-1
Substance: acetyl-SGRme2aGKGGKGLGKGGAKRHRKVL [H4R3me2a]

Substance: acetyl-SGRmeGKGGKGK(FL)GKGGAKRHRK [H4FLme1]
koff (PRMT1 [1]): 292 s⁻¹
kon (PRMT1 [1]): 2.3e+07 M⁻¹ s⁻¹
